Experimental data from patent US11733161B2, “Method of determining concentration of subject based on fraction bound measurement” (Korea Advanced Institute of Science and Technology, priority 2019, dated 2023).
pKd: −log10 of the molar value. Read-outs that look alike come from different tables or passages of the source.

Experiment: real-time WGM (SRSN) resonator measurement of the streptavidin-biotin interaction, Langmuir model analysis
Type: binding
Conditions: for association rate: fit of Equation 7
Text: An interaction between streptavidin and biotin may be measured. […] Prior to experiments, the SRSN resonator may be pre-processed using biotin. When streptavidin of a DPBS flows into a fluid channel, streptavidin starts to attach biotin on a surface of the optical active resonator. Streptavidin that has closely attached biotin on the surface of the resonator may increase the length of an optical path of a resonance mode. Accordingly, a resonance movement may occur because the resonance state of the optical active resonator is changed.
A beam of a 457.9 nm wavelength argon laser 730 may be concentrated on the top of an SRSN resonator 710 through the PDMS wall of a micro microfluidic channel 720. The laser intensity of a focal plane is 20 W/cm^2 and may obtain strong PL emission including a characteristic cavity mode profile by stimulating silicon nano-clusters. The PL emission is collected through the side wall of the microfluidic channel 720 by an objective lens 750 (numerical aperture: 0.15). In this case, a transverse magnetic (TM) polarization component may be selectively captured by a polarity bond. […] The TM mode may be selectively measured as a cavity TM mode because the TM mode has a slot structure and can be firmly fixed compared to a TE mode. In this case, a beam splitter 740 may be configured between the argon laser 730 and the objective lens 750 and between the objective lens 750 and a CCD camera 760. A separate objective lens, a polarizer 770 and the spectrometer 780 may be configured for measurement.
The PL spectrum is measured after the state of a frequency movement is a saturation state.
In order to additionally research the developed detection device and to analyze the influence of the nano-slot structure on molecule dynamics, a time-excessive operation of a frequency movement caused by an interaction was measured. […] Such a time shift of the frequency movement may be understood based on the Langmuir model. This is commonly used to analyze the kinetics of a surface bonding reaction in a system in which a ligand has been fixed to a firm surface. A fraction proportional to a bio sensor signal may be defined as the number of ligands and analysis complexes based on the Langmuir model, and may be divided by a total number of ligands represent in the following equation in a connection step.
[formula] in the saturation state. In FIG. 10A, a solid line indicates a suitable curve of Equation 7 for measured data points. In this curve, values of kon^obs and fbeq(c) can be obtained. Kd, kon and koff can be derived by substituting the two values with Equation 8 and Equation 9 and solving both the equations at the same time.

pKd (streptavidin-biotin complex, saturation state, Hill model fit (FIG. 10B), read-out: Kd)	pKd (streptavidin-biotin complex, read-out: separation constant)	Substance	frequency movement (1 mg/mL, flowed 35 minutes over the biotin-processed resonator, control experiment) [nm]	peak shift (streptavidin 144 nM, saturation state (FIG. 9B)) [nm]	association rate (streptavidin concentration 9 nM in DPBS) [M⁻¹ s⁻¹]	association rate (streptavidin concentration 36 nM in DPBS) [M⁻¹ s⁻¹]	association rate (streptavidin concentration 54 nM in DPBS) [M⁻¹ s⁻¹]	association rate (streptavidin concentration 90 nM in DPBS) [M⁻¹ s⁻¹]	connection ratio / association rate (streptavidin-biotin complex, real-time bonding, Langmuir model) [M⁻¹ s⁻¹]	koff (streptavidin-biotin complex, saturation state (FIG. 10B)) [s⁻¹]
		Bovine Serum Albumin [BSA]	0.25							
6.42	6.42	streptavidin		1.72	12000	4200	3200	6400	0.0003	0.014
